Results from PMC6072100, “Exploring the links between peptoid antibacterial activity and toxicity” (MedChemComm, 2017).
Square brackets hold non-standard residues; d marks the D form. Peptide text beside a SMILES is read from it. Nspe = C[C@H](NCC(=O)O)c1ccccc1; NhArg = N=C(N)NCCCCNCC(=O)O; NPentylGly = CCCCCNCC(=O)O

Experiment: Cytotoxicity assay with HepG2 (alamarBlue)
Assay type: cell-based, human
Conditions: human, HepG2 cells, ED50 HepG2
Experimental: The activity of our peptoid library was assessed against both bacterial and mammalian cells to gain a broader understanding of the factors that lead to effective and selective antimicrobial peptoids. We screened for broad-spectrum antibacterial activity against Gram-negative (Escherichia coli and Pseudomonas aeruginosa) and Gram-positive (Staphylococcus aureus and S. epidermidis) bacteria. The toxicity of the library was also assessed against two mammalian cell lines; HaCaT spontaneously transformed aneuploid keratinocytes were employed to model toxicity against human skin cells and HepG2, a cell line derived from a human liver carcinoma, were used as a study on polarised human hepatocytes. Detailed methods for these assays can be found in the ESI. ^‡ […]
Please note – ED50, the median effective dose, was defined as the dose that kills 50% of cells.
Cytotoxicity analyses were performed in 96-well plates (Costar, Fisher Scientific) using alamarBlue® (Invitrogen) for cell viability detection using a modified protocol as described previously. HepG2 or HaCaT cells were subcultured at 37 °C, 5% CO2 in DMEM high glucose supplemented with heat-inactivated foetal bovine sera (FBS, 10%; Biosera Ltd) and penicillin/streptomycin (P/S, 1%). Cells were counted using a Neubauer Improved Haemocytometer. HepG2 cells were seeded 1 day prior to treatment in 96 well plates at a concentration of 2 × 10^5 cells per mL in 100 μL of medium (2 × 10^4 cells per well). Then cells were pre-incubated with the compounds in triplicate in a dilution series in triplicate from 2–100 μM (5 mM stock solutions in DMSO diluted from 100 μM to 3 μM; untreated cells with DMSO as a negative control) in 50 μl of the media for 1 hour. Afterwards, 40 μL were removed from each well before the addition of 90 μL of the media, followed by incubation for 24 hours at 37 °C, 5% CO2. Then, 10 μL of alamarBlue® (Invitrogen) was added to each well before a 2 hour incubation prior to assessing cell viability using a fluorescent plate reader (Biotek; Ex 560 nm/Em 600 nm). All data were measured in triplicate on a minimum of two occasions to ensure a robust data set was collected. The ED50 values were calculated from the dose response results achieved from the serial dilutions.
Cytotoxicity assay with HepG2
Cytotoxicity analyses were performed in 96-well plates (Costar, Fisher Scientific) using alamarBlue® (Invitrogen) for cell viability detection using a modified protocol as previously described. The HepG2 cells were grown at 37 °C, 5% CO2 in DMEM high glucose supplemented with heat-inactivated foetal bovine sera (FBS, 10%; Biosera Ltd) and penicillin/streptomycin (P/S, 1%). Cells were counted using a Neubauer Improved Haemocytometer. HepG2 cells were seeded 1 day prior to treatment in 96 well plates at a concentration of 2x10^5 cells/mL in 100 µL of medium (2x10^4 cells/well). Then cells were pre-incubated with the compounds in triplicate (5 mM stock solutions in DMSO diluted from 100 µM to 3 µM; untreated cells with DMSO as a negative control) in 50 µl of the media for 1 hour.
Afterwards, 40 µL were removed from each well before the addition of 90 µL of the media, followed by incubation for 24 hours at 37 °C, 5% CO2. Then, 10 µL of alamarBlue® (Invitrogen) was added to each well before a 2 hour incubation prior to assessing cell viability using a fluorescent plate reader (Biotek; Ex 560 nm / Em 600 nm). All data was measured in triplicate on a minimum of two occasions to ensure a robust data set was collected. The ED50 values were calculated from the dose response results achieved from the serial dilutions. […]
5% CO2 in DMEM high glucose supplemented with heat-inactivated foetal bovine sera (FBS, 10%; Biosera Ltd) and penicillin/streptomycin (P/S, 1%). Cells were counted using a Neubauer […]
Empty wells were filled with 100 µL PBS. After 24 hours, cells were incubated with the compounds in a dilution series in triplicate from 2 – 100 µM (5 mM stock solutions in DMSO […]

SMILES	CC50 at 24 h
C[C@@H](c1ccccc1)N(CC(N)=O)C(=O)CN(C(=O)CN(CCCCNC(=N)N)C(=O)CN(C(=O)CN(C(=O)CN(CCCCNC(=N)N)C(=O)CN(C(=O)CN(C(=O)CN(CCCCNC(=N)N)C(=O)CN(C(=O)CN(C(=O)CNCCCCNC(=N)N)[C@@H](C)c1ccccc1)[C@@H](C)c1ccccc1)[C@@H](C)c1ccccc1)[C@@H](C)c1ccccc1)[C@@H](C)c1ccccc1)[C@@H](C)c1ccccc1)[C@@H](C)c1ccccc1 [Peptoid 34, (NhArgNspeNspe)4] (H-[NhArg][Nspe][Nspe][NhArg][Nspe][Nspe][NhArg][Nspe][Nspe][NhArg][Nspe][Nspe]-NH2)	12 µM
CCCCCNCC(=O)N(CC(=O)N(CC(=O)N(CCCCNC(=N)N)CC(=O)N(CC(=O)N(CC(=O)N(CCCCC)CC(=O)N(CC(=O)N(CC(=O)N(CCCCNC(=N)N)CC(=O)N(CC(=O)N(CC(N)=O)[C@@H](C)c1ccccc1)[C@@H](C)c1ccccc1)[C@@H](C)c1ccccc1)[C@@H](C)c1ccccc1)[C@@H](C)c1ccccc1)[C@@H](C)c1ccccc1)[C@@H](C)c1ccccc1)[C@@H](C)c1ccccc1 [Peptoid 40, [(NamyNspeNspe)(NhArgNspeNspe)]2] (H-[NPentylGly][Nspe][Nspe][NhArg][Nspe][Nspe][NPentylGly][Nspe][Nspe][NhArg][Nspe][Nspe]-NH2)	24 µM
